In patent publication US12077503B2, “Substituted cyclic amides and their use as herbicides” (FMC CORPORATION, priority 2015, dated 2024):

Key:
Assay type in all cases: in vivo
rice (Oryra sativa) = assay: Test B flooded paddy test; settings: Flood, 250 g ai/ha; 0 to 100 scale where 0 is no effect and 100 is complete control; 13 to 15 d
How it was run: (§1)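 Visual ratings (0 none to 100 complete control) are relative to untreated plants, taken 13–15 d after treatment in a greenhouse. Test material went straight into floodwater standing 3 cm above the soil, kept constant, on plants at the 2-leaf stage.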

[1] = system: barnyardgrass (Echinochloa crus-galli); assay: Test B flooded paddy test; settings: Flood, 250 g ai/ha; 0 to 100 scale where 0 is no effect and 100 is complete control; 13 to 15 d
How it was run: as §1

[2] = system: sedge, umbrella (small-flower umbrella sedge, Cyperus difformis); assay: Test B flooded paddy test; settings: Flood, 250 g ai/ha; 0 to 100 scale where 0 is no effect and 100 is complete control; 13 to 15 d
How it was run: as §1

[3] = system: ducksalad (Heteranthera limosa); assay: Test B flooded paddy test; settings: Flood, 250 g ai/ha; 0 to 100 scale where 0 is no effect and 100 is complete control; 13 to 15 d
How it was run: as §1

[4] = system: barnyardgrass (Echinochloa crus-galli); assay: Test A preemergence; settings: for Plant response rating, Barnyardgrass: 125 g ai/ha, preemergence, 0 to 100 scale (0 no effect, 100 complete control); for Barnyardgrass plant response rating (0 to 100 scale, 0 is no effect, 100 is complete control): Preemergence, 500 g ai/ha, visual injury approx. 10 d
How it was run: (§2)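 Treatment is preemergence as a directed soil spray after planting, or postemergence at the one- to two-leaf stage, with test chemical in a non-phytotoxic solvent mixture plus surfactant. Plants stay in the greenhouse about 10 d before visual injury scoring on a 0 to 100 scale versus untreated controls.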

[5] = system: ragweed (common ragweed, Ambrosia elatior); assay: Test A preemergence; settings: for Plant response rating, Ragweed: 125 g ai/ha, preemergence, 0 to 100 scale (0 no effect, 100 complete control); for Ragweed plant response rating (0 to 100 scale, 0 is no effect, 100 is complete control): Preemergence, 500 g ai/ha, visual injury approx. 10 d
How it was run: as §2

[6] = system: pigweed (Amaranthus retroflexus); assay: Test A preemergence; settings: for Plant response rating, Pigweed: 125 g ai/ha, preemergence, 0 to 100 scale (0 no effect, 100 complete control); for Pigweed plant response rating (0 to 100 scale, 0 is no effect, 100 is complete control): Preemergence, 500 g ai/ha, visual injury approx. 10 d
Kochia (Kochia scoparia) [7] = assay: Test A preemergence; settings: for Plant response rating, Kochia: 125 g ai/ha, preemergence, 0 to 100 scale (0 no effect, 100 complete control); for Kochia plant response rating (0 to 100 scale, 0 is no effect, 100 is complete control): Preemergence, 500 g ai/ha, visual injury approx. 10 d
How it was run: as §2

[8] = system: ryegrass, Italian (Italian ryegrass, Lolium multiflorum); assay: Test A preemergence; settings: for Plant response rating, Ryegrass, Italian: 125 g ai/ha, preemergence, 0 to 100 scale (0 no effect, 100 complete control); for Ryegrass, Italian plant response rating (0 to 100 scale, 0 is no effect, 100 is complete control): Preemergence, 500 g ai/ha, visual injury approx. 10 d
How it was run: as §2

[9] = system: giant foxtail (Setaria faberii); assay: Test A preemergence; settings: for Plant response rating, Foxtail, Giant: 125 g ai/ha, preemergence, 0 to 100 scale (0 no effect, 100 complete control); for Foxtail, Giant plant response rating (0 to 100 scale, 0 is no effect, 100 is complete control): Preemergence, 500 g ai/ha, visual injury approx. 10 d
How it was run: as §2

corn (Zea mays) = assay: Test A postemergence; settings: postemergence; for Corn plant response rating: 125 g ai/ha, visual injury rating on 0 to 100 scale (0 no effect, 100 complete control), approx. 10 d; for Plant response rating, Corn: 500 g ai/ha, 0 to 100 scale, 0 no effect, 100 complete control
How it was run: as §2

[10] = system: Galium (catchweed bedstraw, Galium aparine); assay: Test A postemergence; settings: postemergence; for Galium plant response rating: 125 g ai/ha, visual injury rating on 0 to 100 scale (0 no effect, 100 complete control), approx. 10 d; for Plant response rating, Galium: 500 g ai/ha, 0 to 100 scale, 0 no effect, 100 complete control
How it was run: as §2

[11] = system: wheat (Triticum aestivum); assay: Test A postemergence; settings: postemergence; for Wheat plant response rating: 125 g ai/ha, visual injury rating on 0 to 100 scale (0 no effect, 100 complete control), approx. 10 d; for Plant response rating, Wheat: 500 g ai/ha, 0 to 100 scale, 0 no effect, 100 complete control
How it was run: as §2

[12] = system: barnyardgrass (Echinochloa crus-galli); assay: Test A postemergence; settings: postemergence; for Barnyardgrass plant response rating: 125 g ai/ha, visual injury rating on 0 to 100 scale (0 no effect, 100 complete control), approx. 10 d; for Plant response rating, Barnyardgrass: 500 g ai/ha, 0 to 100 scale, 0 no effect, 100 complete control
How it was run: as §2

[13] = system: ragweed (common ragweed, Ambrosia elatior); assay: Test A postemergence; settings: postemergence; for Ragweed plant response rating: 125 g ai/ha, visual injury rating on 0 to 100 scale (0 no effect, 100 complete control), approx. 10 d; for Plant response rating, Ragweed: 500 g ai/ha, 0 to 100 scale, 0 no effect, 100 complete control
How it was run: as §2

[14] = system: pigweed (Amaranthus retroflexus); assay: Test A postemergence; settings: postemergence; for Pigweed plant response rating: 125 g ai/ha, visual injury rating on 0 to 100 scale (0 no effect, 100 complete control), approx. 10 d; for Plant response rating, Pigweed: 500 g ai/ha, 0 to 100 scale, 0 no effect, 100 complete control
How it was run: as §2

Kochia (Kochia scoparia) [15] = assay: Test A postemergence; settings: postemergence; for Kochia plant response rating: 125 g ai/ha, visual injury rating on 0 to 100 scale (0 no effect, 100 complete control), approx. 10 d; for Plant response rating, Kochia: 500 g ai/ha, 0 to 100 scale, 0 no effect, 100 complete control
How it was run: as §2

[16] = system: blackgrass (Alopecurus myosuroides); assay: Test A postemergence; settings: postemergence; for Blackgrass plant response rating: 125 g ai/ha, visual injury rating on 0 to 100 scale (0 no effect, 100 complete control), approx. 10 d; for Plant response rating, Blackgrass: 500 g ai/ha, 0 to 100 scale, 0 no effect, 100 complete control
How it was run: as §2

[17] = system: ryegrass, Italian (Italian ryegrass, Lolium multiflorum); assay: Test A postemergence; settings: postemergence; for Ryegrass, Italian plant response rating: 125 g ai/ha, visual injury rating on 0 to 100 scale (0 no effect, 100 complete control), approx. 10 d; for Plant response rating, Ryegrass, Italian: 500 g ai/ha, 0 to 100 scale, 0 no effect, 100 complete control
How it was run: as §2

[18] = system: giant foxtail (Setaria faberii); assay: Test A postemergence; settings: postemergence; for Foxtail, Giant plant response rating: 125 g ai/ha, visual injury rating on 0 to 100 scale (0 no effect, 100 complete control), approx. 10 d; for Plant response rating, Foxtail, Giant: 500 g ai/ha, 0 to 100 scale, 0 no effect, 100 complete control
How it was run: as §2

| SMILES | Plant response rating, Rice (rice (Oryra sativa)) | Plant response rating, Barnyardgrass [1] | Plant response rating, Sedge, Umbrella [2] | Plant response rating, Ducksalad [3] | Plant response rating, Barnyardgrass [4] | Barnyardgrass plant response rating (0 to 100 scale, 0 is no effect, 100 is complete control) [4] | Plant response rating, Ragweed [5] | Ragweed plant response rating (0 to 100 scale, 0 is no effect, 100 is complete control) [5] | Plant response rating, Pigweed [6] | Pigweed plant response rating (0 to 100 scale, 0 is no effect, 100 is complete control) [6] | Plant response rating, Kochia (Kochia (Kochia scoparia) [7]) | Kochia plant response rating (0 to 100 scale, 0 is no effect, 100 is complete control) (Kochia (Kochia scoparia) [7]) | Plant response rating, Ryegrass, Italian [8] | Ryegrass, Italian plant response rating (0 to 100 scale, 0 is no effect, 100 is complete control) [8] | Plant response rating, Foxtail, Giant [9] | Foxtail, Giant plant response rating (0 to 100 scale, 0 is no effect, 100 is complete control) [9] | Corn plant response rating (corn (Zea mays)) | Plant response rating, Corn (corn (Zea mays)) | Galium plant response rating [10] | Plant response rating, Galium [10] | further results |
| --- | --- | --- | --- | --- | --- | --- | --- | --- | --- | --- | --- | --- | --- | --- | --- | --- | --- | --- | --- | --- | --- |
| O=C(Nc1cccc(F)c1F)C1C(=O)N(c2ccccc2)CC1c1cccc(C(F)(F)F)c1 (stereo not drawn) [Compound 457] | 0 | 0 | 0 | 0 | 0 | 0 | 0 | 0 | 0 | 0 | 0 | 0 | 0 | 0 | 0 | 0 | 0 | 0 | 0 | 0 | Wheat plant response rating [11]: 0; Plant response rating, Wheat [11]: 0; Barnyardgrass plant response rating [12]: 0; Plant response rating, Barnyardgrass [12]: 0; Ragweed plant response rating [13]: 0; Plant response rating, Ragweed [13]: 0; Pigweed plant response rating [14]: 0; Plant response rating, Pigweed [14]: 0; Kochia plant response rating (Kochia (Kochia scoparia) [15]): 0; Plant response rating, Kochia (Kochia (Kochia scoparia) [15]): 0; Blackgrass plant response rating [16]: 0; Plant response rating, Blackgrass [16]: 0; Ryegrass, Italian plant response rating [17]: 0; Plant response rating, Ryegrass, Italian [17]: 0; Foxtail, Giant plant response rating [18]: 0; Plant response rating, Foxtail, Giant [18]: 0 |
| Cc1c(F)ccc(NC(=O)C2C(=O)NCC2c2cccc(OC(F)(F)C(F)F)c2)c1F (stereo not drawn) [Compound 460] | 0 | 40 | 0 | 100 | 80 | 80 | 0 | 20 | 30 | 30 | 0 | 40 | 40 | 60 | 90 | 90 | 20 | 40 | 50 | 60 | Wheat plant response rating [11]: 0; Plant response rating, Wheat [11]: 20; Barnyardgrass plant response rating [12]: 60; Plant response rating, Barnyardgrass [12]: 70; Ragweed plant response rating [13]: 0; Plant response rating, Ragweed [13]: 0; Pigweed plant response rating [14]: 20; Plant response rating, Pigweed [14]: 40; Kochia plant response rating (Kochia (Kochia scoparia) [15]): 0; Plant response rating, Kochia (Kochia (Kochia scoparia) [15]): 30; Blackgrass plant response rating [16]: 20; Plant response rating, Blackgrass [16]: 40; Ryegrass, Italian plant response rating [17]: 30; Plant response rating, Ryegrass, Italian [17]: 30; Foxtail, Giant plant response rating [18]: 90; Plant response rating, Foxtail, Giant [18]: 80 |
